Measured values: US20090292021A1, “ANTICONVULSIVE PHARMACEUTICAL COMPOSITIONS” (INSERM (INSTITUT NATIONAL DE LA SANTE ET DE LA REC, priority 2006, published 2009)

What was measured:
Format in all cases: in vivo, rat
[1] = tested on: Wistar rats; test: Flicker ERG recording in VGB-treated rats; conditions: for decrease of flicker ERG amplitude: vs before treatment
Method: (§1) As described previously Duboc, A., Hanoteau, N., Simonutti, M., Rudolf, G., Nehlig, A., Sahel, J. A., Picaud, S. (2004). “Vigabatrin, the GABA-transaminase inhibitor, damages cone photoreceptors in rats.” Annals of Neurology 55(5): 695-705), Wistar rats Rj Wi IOPS Han were purchased from Janvier Breeding Center (Le Genest St Isle, France) at 7 weeks and acclimatised for 2 weeks. VGB was dissolved in 0.9% NaCl at a concentration of 125 mg/ml. It was injected daily and intraperitonealy at a final dose of 250 mg/kg. To investigate the progression of visual defects with the treatment duration, rats of the same age were divided in five groups and treated with the drug for different times as described in table 1 hereunder.
Flicker ERGs were recorded on each animal before the treatment, at the end of the VGB treatment, and 4-day later. For the study of functional recovery after VGB withdrawal, flicker ERGs were recorded before the treatment, at 35-day of treatment, 16-day recovery and 60-day recovery period.
Animals were kept in the dark room for at least 12 hours and handled under dim red light. They were anaesthetized by an intraperitoneal (i.p) injection (1 to 1.5 ml/kg) of a solution containing ketamine (40 mg/ml) and xylazine (4 mg/ml Rompum). Pupils were dilated with a drop of 0.5% tropicamide, and the cornea was locally anaesthetized with a drop of 0.4% chlorhydrate d'oxybupropacaïne. Measurements were obtained from the right eye of animals laid on a temperature controlled blanket. The measuring electrode, a gold ring covered with a plastic contact lens, was placed on the cornea and a tight electrical contact was obtained by addition of methylcellulose. The reference and ground electrodes made from needles were subcutaneously inserted at the head and the tail respectively. Finally, the whole animal was placed in a Ganzfeld bowl delivering light stimuli (Toennies Multiliner Vision, Höchberg, Germany). For flickering ERG measurements, animals were adapted for 10 minutes to a white background light at a 25 cdm^−2 to suppress rod responses. Flicker responses were obtained with 50 white light flashes at a 2.5 cdsm^−2 intensity and a 15 Hz flickering frequency (High pass filter 1 Hz and low pass filter 300 Hz). Amplitude and implicit time responses of the flicker ERG were measured at the first maximum positive peak with respect to the light onset.

[2] = tested on: Wistar rats; test: Exploration of eye fundus with scanning laser ophthalmoscope (SLO)
Method: as §1
Examination of the eye fundus was performed with a Scanning Laser Opthalmoscope (SLO) (HRA, Heidelberg, Dossenheim, Allemagne). Pupils were dilated with a drop of 0.5% tropicamide. During the examination an experimenter hold the animal to point the eye in the axis of camera. To limit animal stress, the duration of examination was minimized and these short sequences were alternated with rests periods. Eye fundus in each animal eye was examined in unanaesthetized rats with the 534 nm laser light beam using a filter to decrease its intensity. Fundus autofluorescence was obtained with the 488 nm laser beam.

[3] = tested on: Wistar rats; test: Indocyanine green (ICG) angiography of choroidal vessels
Method: as §1
For ICG angiography, animals were anesthetized as above. A solution of Infracyanine (0.1 ml, 5 mg/ml, Société d'Etude et de Recherche Biologiques, Paris, France) dissolved in distilled water was injected intravenously. Images were obtained with the 795 nm laser light immediately after the injection.

[4] = tested on: Wistar rats; test: Length of disorganized outer retina on DAPI-stained retinal sections; conditions: treatment of 45 days, mean ± S.E.M, n=8
Method: as §1
After the animal sacrifice, the cornea was branded at the upper side to orient the eye cup. The eyes were dissected, the cornea and lens removed and a nick was made on the upper side of the eye cup. Eye cups were embedded in OCT (Labonord, Villeneuve d'Ascq, France) to prepare cryosection (Duboc et al 2004, Supra). Dorso-ventral retinal sections passing through the optic nerve were stained with Diamidi-phenyl-indole (DAPI). […] The retinal length showing displaced photoreceptor nuclei was measured on both part of the optic nerve on the retina of VGB-treated rat.

[5] = tested on: Wistar rats; test: Immunolabeling of retinal sections: cone arrestin (cone count) and G0α (ON bipolar cells); conditions: treated for 45 days
Method: as §1
After the animal sacrifice, the cornea was branded at the upper side to orient the eye cup. The eyes were dissected, the cornea and lens removed and a nick was made on the upper side of the eye cup. Eye cups were embedded in OCT (Labonord, Villeneuve d'Ascq, France) to prepare cryosection (Duboc et al 2004, Supra). Dorso-ventral retinal sections passing through the optic nerve were stained with Diamidi-phenyl-indole (DAPI). The DAPI-nuclear staining was visualized on a Leica microscope (20× objective) and digitalized on a camera coupled to optical image analysis software (Analysis program). The retinal length showing displaced photoreceptor nuclei was measured on both part of the optic nerve on the retina of VGB-treated rat.
For immunolabeling, the oriented retinal sections were permeabilized for 5 minutes in PBS containing 0.1% Triton X-100 (Sigma, St Louis, Mo.), rinsed and incubated in PBS containing 1% bovine serum albumin (Eurobio, Les-Ulis, France), 0.1% Tween 20 (Sigma) and 0.1% sodium azide (Merck, Fontenay-Sous-Bois) for 2 hours at room temperature. The primary antibodies added to the solution were incubated for 2 hours at room temperature. Antibodies used were the anti-VEGF rabbit polyclonal antibody (1:400, Ab-1, NeoMarkers, Interchim, France), the monoclonal anti-vimentin antibody (1:400, cloneV9, DAKO, France), the polyclonal mCAR antibody (1:10,000; a gift from Dr Cheryl Craft (Keck School of Medicine of the University of Southern California, Los Angeles, USA)), and the monoclonal anti-G0-α antibody (1:500, Chemicon). After several washes, sections were incubated with the secondary antibodies, goat anti-rabbit IgG conjugated to Alexa TM 594 and goat anti-mouse IgG conjugated to Alexa TM 488 (1:500, (Molecular Probes, Eugene, Oreg.) for 2 hours. The nuclear dye, DAPI, was added in an incubation solution. Sections were mounted with the Fluorsave reagent (Calbiochem, San Diego, Calif.).

[6] = tested on: Wistar rats; test: VEGF immunolabeling of retinal sections; conditions: VGB-treated vs control animals
Method: as §1
After the animal sacrifice, the cornea was branded at the upper side to orient the eye cup. The eyes were dissected, the cornea and lens removed and a nick was made on the upper side of the eye cup. Eye cups were embedded in OCT (Labonord, Villeneuve d'Ascq, France) to prepare cryosection (Duboc et al 2004, Supra). Dorso-ventral retinal sections passing through the optic nerve were stained with Diamidi-phenyl-indole (DAPI). […] The retinal length showing displaced photoreceptor nuclei was measured on both part of the optic nerve on the retina of VGB-treated rat. […]

C=CC(N)CCC(=O)O (centres unmarked) [VGB, 4-amino-5-hexenoic acid]
flicker ERG amplitude ([1]; 15-day treatment, after 4-day recovery period): 51 μV | flicker ERG amplitude ([1]; 25-day treatment, after 4-day recovery period): 38 μV | flicker ERG amplitude ([1]; 35-day treatment, after 4-day recovery period): 50 μV | flicker ERG amplitude ([1]; end of 5-day treatment, 250 mg/kg daily i.p.): 83 μV | flicker ERG amplitude ([1]; end of 15-day treatment, 250 mg/kg daily i.p.): 52 μV | decrease of flicker ERG amplitude ([1]; end of 15-day treatment): 45% | flicker ERG amplitude ([1]; end of 25-day treatment, 250 mg/kg daily i.p.): 21 μV | decrease of flicker ERG amplitude ([1]; end of 25-day treatment): 79% | flicker ERG amplitude ([1]; end of 35-day treatment, 250 mg/kg daily i.p.): 29 μV | decrease of flicker ERG amplitude ([1]; end of 35-day treatment): 71% | flicker ERG amplitude ([1]; recovery study, 35-day treatment, 16-day recovery): 84 μV | reduction of flicker ERG ([1]; recovery study, 35-day treatment, 16-day recovery, vs value before treatment): 31% | flicker ERG amplitude ([1]; recovery study, 35-day treatment, 60-day recovery): 88 μV | reduction of flicker ERG ([1]; recovery study, 35-day treatment, 60-day recovery, vs value before treatment): 28% | flicker ERG amplitude ([1]; recovery study, 35-day treatment, immediately after treatment, n=6): 51 μV | reduction of flicker ERG ([1]; recovery study, 35-day treatment, immediately after treatment, vs beginning of experiment): 58% | retinal autofluorescence, SLO ([2]; 488 nm laser, in vivo): fluorescent spots were observed in the modified areas in two rats | modified retinal areas at eye fundus, SLO ([2]; after arresting the VGB treatment for one month (n=2)): remained visible | modified retinal areas (dark/grey network) at eye fundus, green laser SLO ([2]; after treatment of 25 days (n=4), 35 days (n=1) and 55 days (n=4)): present in all animals examined | modified retinal areas at eye fundus, SLO ([2]; animals treated for 5 days (n=1) or 11 days (n=3)): No such modified areas were detected | size or aspect of the choroidal vasculature ([3]; after treatment of 25 (n=4) and 55 days (n=4)): no change in the size or aspect of the choroidal vasculature could be detected | ICG fluorescence in areas showing modified eye fundus after extravasation ([3]; animals treated for 55 days): inhomogeneous fluorescent image | length of disorganized outer retina, lower pole [4]: 70 μm | length of disorganized outer retina, upper pole [4]: 1106 μm | ON bipolar cells labeled with G0α antibody [5]: some cells were observed to send a process into the ONL | cone morphology, cone arrestin labelling [5]: many cones were observed to be truncated | decrease in density of cones vs control rats ([5]; cone arrestin immunolabeling): 18.7% | density of cones ([5]; cone arrestin immunolabeling, n=7): 12.34±0.36 cells/300 μm | VEGF expression in retina (Müller glial cells) [6]: increase in VEGF expression
